Measurements reported in patent US20200024246A1, “POGOSTONE DERIVATIVES AND METHODS OF USING THE SAME” (Hamyard Associates LLC, priority 2018, published 2020).
“Also recorded” adds a separate entry of the source. Where two headings read alike, the source gives them in different places.

Tests used:
[1] = test system: adult female mosquitoes; assay: whole plant or invertebrate; details: for LD50 / mortality at 0.5 % / mortality at 1.5 %: 24 h; for LD50: read-out: 24-hour Mortality LD50 (μg/g mosquito); for ranking in knockdown and mortality screenings: words; for Percent Knockdown at 1 Hour / Percent Mortality: mosquitoes; for Percent Knockdown at 1 Hour: 0.5% solutions; for Percent Mortality: 24 hours; for pest or weed control at 0.5 % / pest or weed control at 1.5 % / mortality at 0.5 % / mortality at 1.5 %: Culicidae; for pest or weed control at 0.5 % / pest or weed control at 1.5 %: 1 h; for pest or weed control at 0.5 %: read-out: Knockdown at 0.5%; for pest or weed control at 1.5 %: read-out: Knockdown at 1.5%; for mortality at 0.5 %: read-out: Mortality at 0.5%; for mortality at 1.5 %: read-out: Mortality at 1.5%
Method: The first group of DHAA-based derivatives that were tested included Formula A2, Formula B3, Formula C3, and Formula D3. A solution of 0.5% or 1.5% of each of these compounds was applied to the mosquitoes, as described above. […] Acetone was used as a control.

[2] = test system: house flies; assay: Knockdown and mortality of DHAA-based derivatives on house flies; type: in vivo, house fly
Source text: Accordingly, further derivatives with structures similar to Formula C3 were synthesized and tested for knockdown potential and mortality in house flies and mosquitoes using an experimental design similar to the one described above. These compounds include Formula C5, Formula C6, Formula C7, Formula C8, Formula C9, and Formula C10.

[3] = test system: adult, female mosquitoes; assay: Topical application on adult female mosquitoes (24-h mortality, 1-h knockdown); type: in vivo, mosquito; details: for ED50: read-out: KD50 (ug/g mosquito); for LD50: read-out: LD50 (ug/g mosquito)
[4] = Mosquito Knockdown Properties (1 hour), topical application
[5] = Mosquito Toxicity (24 hours), topical application to pronotum

CCOCC(=O)c1c(O)cc(C)oc1=O [Formula C8]
Mosquito Knockdown at 0.5% concentration [1]: 43% | Mosquito Mortality at 0.5% concentration [1]: 73% | Mosquito Knockdown at 1.5% concentration [1]: 80% | Mosquito Mortality at 1.5% concentration [1]: 80% | 1-hour Knockdown EC50 (μg/g mosquito) ([1]; mosquito, topical, 1 hour): 661 μg/g mosquito | LD50 ([1]; topical): 256 mg/kg | ranking in knockdown and mortality screenings [1]: performed the best in the initial knockdown and mortality screenings | House Fly Knockdown at 0.5% concentration [2]: 0% | House Fly Mortality at 0.5% concentration [2]: 3% | House Fly Knockdown at 1.5% concentration [2]: 2% | House Fly Mortality at 1.5% concentration [2]: 13%

Cc1cc(O)c(C(=O)COC(C)C)c(=O)o1 [Formula C3]
Percent Knockdown at 1 Hour [1]: 98% | Percent Mortality ([1]; at 0.5%): 89% | Percent Mortality ([1]; at 1.5%): 88% | LD50 ([1]; topical): 183 mg/kg | ranking in knockdown and mortality screenings [1]: performed the best in terms of highest percent knockdown and mortality; also recorded: performed the best in the initial knockdown and mortality screenings

CC(=O)CCC(=O)c1c(O)cc(C)oc1=O [Formula C17]
pest or weed control at 0.5 % ([1]; topical): 27% | pest or weed control at 1.5 % ([1]; topical): 13% | mortality at 0.5 % ([1]; topical): 47% | mortality at 1.5 % ([1]; topical): 7%

Cc1cc(O)c(C(=O)/C=C/C(C)(C)C)c(=O)o1 [Formula C21]
pest or weed control at 0.5 % ([1]; topical): 3% | pest or weed control at 1.5 % ([1]; topical): 7% | mortality at 0.5 % ([1]; topical): 0% | mortality at 1.5 % ([1]; topical): 0%

CC(C)C(=O)c1c(O)c2cc(Cl)ccc2oc1=O [Formula 34]
ED50 [3, 4]: > 1500 mg/kg | LD50 [3, 5]: 111 mg/kg | insecticidal properties compared with natural pogostone, natural pyrethrins or terpenoids ([3]; words, refers to Table 1): possessed better insecticidal properties than natural pogostone

Cc1cc(O)c(C(=O)COCc2ccccc2)c(=O)o1 [Formula C7]
Mosquito Knockdown at 0.5% concentration [1]: 10% | Mosquito Mortality at 0.5% concentration [1]: 23% | Mosquito Knockdown at 1.5% concentration [1]: 20% | Mosquito Mortality at 1.5% concentration [1]: 15% | House Fly Knockdown at 0.5% concentration [2]: 2.5% | House Fly Mortality at 0.5% concentration [2]: 13% | House Fly Knockdown at 1.5% concentration [2]: 1% | House Fly Mortality at 1.5% concentration [2]: 9%

CCCCC(CC)CNC(=O)c1c(O)cc(C)oc1=O (stereo not shown) [Formula B3]
Percent Knockdown at 1 Hour [1]: 2% | Percent Mortality ([1]; at 0.5%): 9% | Percent Mortality ([1]; at 1.5%): 16%

CC(=O)C1=Cc2ccccc2OC1 [Formula 16]
LD50 ([3]; topical, 24 h): > 1500 mg/kg

CC(C)CCC(=O)c1c(O)cc(-c2ccccc2)oc1=O [Formula 9]
ED50 [3, 4]: > 1500 mg/kg | LD50 [3, 5]: > 1500 mg/kg

CC(=O)c1c(O)c2ccccc2oc1=O [Formula C27]
pest or weed control at 0.5 % ([1]; topical): 100% | pest or weed control at 1.5 % ([1]; topical): 73% | mortality at 0.5 % ([1]; topical): 97% | mortality at 1.5 % ([1]; topical): 83%

Cc1cc(O)c(C(=O)Nc2ccccc2)c(=O)o1 [Formula A3]
Percent Knockdown at 1 Hour [1]: 4% | Percent Mortality ([1]; at 0.5%): 5% | Percent Mortality ([1]; at 1.5%): 19%

Cc1cc(O)c(C(=O)CCC(O)CBr)c(=O)o1 (stereo not shown) [Formula C20]
pest or weed control at 0.5 % ([1]; topical): 17% | pest or weed control at 1.5 % ([1]; topical): 10% | mortality at 0.5 % ([1]; topical): 10% | mortality at 1.5 % ([1]; topical): 20%

CCCCCCCCCC(=O)c1c(O)c2ccccc2oc1=O [Formula 18]
ED50 ([3]; topical, 1 h): > 1500 mg/kg | LD50 ([3]; topical, 24 h): > 1500 mg/kg

Cc1ccc(C(C)C)cc1O [Carvacrol, reference compound]
ED50 ([3]; topical, 1 h): 2000 mg/kg | LD50 ([3]; topical, 24 h): 3400 mg/kg | LD50 ([1]; topical): 3400 mg/kg

Cc1cc2c(c(=O)o1)C(=O)CC(C(C)C)O2 (stereo not shown) [Formula C16]
pest or weed control at 0.5 % ([1]; topical): 0% | pest or weed control at 1.5 % ([1]; topical): 7% | mortality at 0.5 % ([1]; topical): 3% | mortality at 1.5 % ([1]; topical): 3%

Cc1ccc2oc(=O)c(C(=O)CCC(C)C)c(O)c2c1 [Formula 21]
ED50 ([3]; topical, 1 h): > 1500 mg/kg | LD50 ([3]; topical, 24 h): 534 mg/kg

Cc1cc(O)c(C(=O)CCC=O)c(=O)o1 [Formula C18]
pest or weed control at 0.5 % ([1]; topical): 3% | pest or weed control at 1.5 % ([1]; topical): 0% | mortality at 0.5 % ([1]; topical): 3% | mortality at 1.5 % ([1]; topical): 7%
